In PubChem BioAssay (NCI):
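Growth conditions: 96-well plates. Treatment: test compound, 48 hours, 5 concentrations. Analysis: linear interpolation between bracketing concentrations; unreached endpoints set to highest concentration. GI50 = concentration required for 50% inhibition of growth. The concentration for full growth arrest is given as TGI.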

Columns and labels:
Test in all cases: DTP human tumour cell line panel, 48 h
A498 renal = test system: A498 renal
CAKI-1 renal = test system: CAKI-1 renal
COLO 205 colon = test system: COLO 205 colon
LOX IMVI melanoma = test system: LOX IMVI melanoma
NCI-H226 lung = test system: NCI-H226 lung
OVCAR-3 ovarian = test system: OVCAR-3 ovarian
PC-3 prostate = test system: PC-3 prostate
SK-MEL-5 melanoma = test system: SK-MEL-5 melanoma
SNB-19 CNS = test system: SNB-19 CNS
U251 CNS = test system: U251 CNS

SMILES	GI50 (A498 renal)	TGI (A498 renal)	GI50 (CAKI-1 renal)	TGI (CAKI-1 renal)	GI50 (COLO 205 colon)	TGI (COLO 205 colon)	GI50 (LOX IMVI melanoma)	TGI (LOX IMVI melanoma)	GI50 (NCI-H226 lung)	TGI (NCI-H226 lung)	GI50 (OVCAR-3 ovarian)	TGI (OVCAR-3 ovarian)	GI50 (PC-3 prostate)	TGI (PC-3 prostate)	GI50 (SK-MEL-5 melanoma)	TGI (SK-MEL-5 melanoma)	GI50 (SNB-19 CNS)	TGI (SNB-19 CNS)	GI50 (U251 CNS)	TGI (U251 CNS)
Cn1c(=O)c(Oc2ccc(F)cc2F)cc2cnc(NC3CCOCC3)nc21	5 µM	> 25 µM	> 25 µM	> 25 µM	> 25 µM	> 25 µM	> 25 µM	> 25 µM	> 25 µM	> 25 µM	> 25 µM	> 25 µM	> 25 µM	> 25 µM	> 25 µM	> 25 µM	> 25 µM	> 25 µM	> 25 µM	> 25 µM
COc1ccc2nc3cccc([N+](=O)[O-])c3c(NC(C)CN(C)C)c2c1 (centres undefined)	2.09 µM	4.59 µM	2.52 µM	7.19 µM	1.84 µM	6.89 µM	1.91 µM	5.04 µM	1.75 µM	4.1 µM	3.15 µM	10.4 µM		6.85 µM	1.18 µM	2.49 µM	2.63 µM	7.91 µM	0.371 µM	2.17 µM
CC/C=C\C[C@H](O)C/C=C1/C(=O)C=C[C@@H]1C/C=C\CCCCO	16.8 µM	32.5 µM	3.14 µM	12.8 µM	2.45 µM	5.99 µM	1.34 µM	2.93 µM	2.24 µM	4.76 µM	3.72 µM	12.9 µM	3.32 µM	9.23 µM	1.88 µM	3.78 µM	7.6 µM	23.2 µM	3.81 µM	13.4 µM
COc1cc(C2CC(=O)Nc3c2c(C)nn3-c2nc3ccccc3[nH]2)cc(OC)c1O (centres undefined)	1.86 µM	6.1 µM	2.36 µM	5.44 µM	17.2 µM	46 µM	3.08 µM	10.9 µM	2.46 µM	7.16 µM	2.95 µM	7.78 µM	3.49 µM	38.8 µM	1.83 µM	3.62 µM	3.5 µM	> 100 µM	3.49 µM	> 40.8 µM
N#CC1=C(N)Oc2c(sc3c(Br)cccc23)C1c1ccc(Cl)cc1 (centres undefined)	0.47 µM	11 µM	0.477 µM	16.3 µM	0.774 µM	2.72 µM	0.579 µM	8.45 µM	1.49 µM	10.4 µM	0.272 µM	0.749 µM	0.56 µM	5.55 µM	0.559 µM	2.72 µM	0.822 µM	12.8 µM	0.563 µM	2.36 µM
O=[N+]([O-])c1ccc2c(c1)C(c1ccccc1Cl)=Nc1c(n[nH]c1-c1cccnc1)N2	> 20.3 µM	> 25 µM	> 25 µM	> 25 µM	> 25 µM	> 25 µM	> 25 µM	> 25 µM	> 25 µM	> 25 µM	> 25 µM	> 25 µM	> 25 µM	> 25 µM	> 25 µM	> 25 µM	> 25 µM	> 25 µM	> 25 µM	> 25 µM
CC(C)Cc1ccc(C(C)C(=O)NCc2ccc(Cn3c(=O)sn(CCCI)c3=O)cc2)cc1 (centres undefined)	1.43 µM	2.75 µM	0.404 µM	1.61 µM	0.271 µM	1.14 µM	0.181 µM	0.393 µM	0.884 µM	2.32 µM	0.269 µM	0.791 µM	0.732 µM	2.07 µM	1.46 µM	2.78 µM	1.45 µM	2.78 µM	1.43 µM	2.89 µM
C=C1C(=O)O[C@H]2[C@H]1CC/C(CNC(=O)/C=C/c1ccccc1F)=C\CC[C@@]1(C)O[C@@H]21	2.6 µM	7.49 µM	1.3 µM	2.67 µM	1.4 µM	2.96 µM	1.19 µM	2.56 µM	2.42 µM	6.94 µM	0.691 µM	2.1 µM	2 µM	4.29 µM	1.78 µM	3.29 µM	3.83 µM	14.4 µM	1.86 µM	3.75 µM
COC(=O)c1oc2c(C(=O)/C=C/c3ccc(OC)cc3)c(OCCN3CCOCC3)ccc2c1C	2.04 µM	4.69 µM	1.74 µM	4.94 µM	1.58 µM	3.12 µM	1.4 µM	2.79 µM	1.59 µM	3.51 µM	1.89 µM	5.69 µM	1.84 µM	6.88 µM	1.69 µM	3.17 µM	1.65 µM	4.15 µM	1.4 µM	2.74 µM
NC(N)=Nc1ccc(/C=C2\C=Cc3ccccc32)cc1	4.83 µM	19.2 µM	2.49 µM	8.67 µM	1.99 µM	3.7 µM	1.63 µM	3.02 µM	5.73 µM	31.1 µM	3.05 µM	8.93 µM	3.31 µM	14.8 µM	4.5 µM	17.8 µM	6.32 µM	32.5 µM	1.72 µM	3.31 µM
N#Cc1c(N/N=C\c2ccc(Cl)cc2)nc(N)nc1N1CCOCC1	25.5 µM	69.2 µM	43.3 µM	> 100 µM	66.2 µM	> 100 µM	21.6 µM	62.4 µM	53.6 µM	> 100 µM	22.5 µM	60.5 µM	24.6 µM	> 100 µM	19 µM	> 100 µM	> 100 µM	> 100 µM	40.4 µM	> 100 µM
Cc1ccccc1C(C(=O)NC1CCCCC1)N(C(=O)CNc1ccc(C#N)cc1)c1cccc(F)c1 (centres undefined)	24 µM	74.4 µM	14.7 µM	> 62.6 µM	> 83.2 µM	> 100 µM	44.9 µM	> 100 µM	14.1 µM	> 94.5 µM	> 63 µM	> 100 µM	20.3 µM	> 100 µM	> 71.2 µM	> 100 µM	9.13 µM	37.3 µM	5.28 µM	> 100 µM
